Data: patent US20180153848A1, “CABAZITAXEL FAT EMULSION, AND PREPARATION METHOD AND USE THEREOF” (JIANGSU TASLY DIYI PHARMACEUTICAL CO., LTD., priority 2015, published 2018)

Assays:
[1] = Investigation on the solubility of cabazitaxel in oils for injection, with low temperature challenge test; format: physicochemical; set-up: key to dissolved state in oil for injection: —: Completely insoluble; conditions: for dissolved state in oil for injection: 70° C. with stirring
Procedure: In this Test Example, appropriate amounts of cabazitaxel were weighed, respectively placed into medium chain triglyceride for injection, soybean oil, olive oil, castor oil and palm oil at 70° C., and heated with stirring, to observe the dissolved state thereof. The solutions with the drug dissolved were stored at a condition of 4-6° C. for 72 hours, to perform a low temperature challenge test. The appearance changes of the solutions at 72 hours in the low temperature storage were observed.

[2] = cited from earlier work
Beagle dogs = conditions: intravenous injection of 0.3% or 0.35% Tween-80; cited from earlier work

For CO[C@H]1C(=O)[C@]2(C)[C@@H](OC)C[C@H]3OC[C@@]3(OC(C)=O)[C@H]2[C@H](OC(=O)c2ccccc2)[C@]2(O)C[C@H](OC(=O)[C@H](O)[C@@H](NC(=O)OC(C)(C)C)c3ccccc3)C(C)=C1C2(C)C [cabazitaxel, 4-acetyloxy-2α-benzoyloxy-5β,20-epoxy-1-hydroxy-7β, 10β-dimethoxy-9-oxotax-11-en-13 α-yl(2R,3S)-3-t-butoxycarbonylamino-2-hydroxy-3-phenylpropionate], the “solubility in medium chain triglycerides” value [1] was “about 50 mg/g”, the “solubility in medium chain triglyceride for injection” value ([1]; after storage at low temperature (4-6° C.) for 72 h) was “about 50 mg/g” and the “dissolved state in oil for injection” value ([1]; castor oil, Concentration (mg/g) 10 h) was “cannot be fully dissolved”. For the same molecule, the “dissolved state in oil for injection” value ([1]; castor oil, Concentration (mg/g) 20 h) was “—”, the “dissolved state in oil for injection” value ([1]; castor oil, Concentration (mg/g) 30 h) was “—” and the “dissolved state in oil for injection” value ([1]; castor oil, Concentration (mg/g) 40 h) was “—”. For the same molecule, the “dissolved state in oil for injection” value ([1]; castor oil, Concentration (mg/g) 50 h) was “—”, the “dissolved state in oil for injection” value ([1]; castor oil, Concentration (mg/g) 60 h) was “—” and the “solubility in long chain oils” value ([1]; long chain oils such as soybean oil, olive oil, castor oil, palm oil) was “less than 10 mg/g”. The “dissolved state in oil for injection” value ([1]; medium chain triglyceride, Concentration (mg/g) 60 h) was “rapidly dissolved”, the “dissolved state in oil for injection” value ([1]; olive oil, Concentration (mg/g) 10 h) was “cannot be fully dissolved” and the “dissolved state in oil for injection” value ([1]; olive oil, Concentration (mg/g) 20 h) was “—”. For the same molecule, the “dissolved state in oil for injection” value ([1]; olive oil, Concentration (mg/g) 30 h) was “—”, the “dissolved state in oil for injection” value ([1]; olive oil, Concentration (mg/g) 40 h) was “—” and the “dissolved state in oil for injection” value ([1]; olive oil, Concentration (mg/g) 50 h) was “—”. The “dissolved state in oil for injection” value ([1]; olive oil, Concentration (mg/g) 60 h) was “—”, the “dissolved state in oil for injection” value ([1]; palm oil, Concentration (mg/g) 10 h) was “cannot be fully dissolved” and the “dissolved state in oil for injection” value ([1]; palm oil, Concentration (mg/g) 20 h) was “—”. The “dissolved state in oil for injection” value ([1]; palm oil, Concentration (mg/g) 30 h) was “—”, the “dissolved state in oil for injection” value ([1]; palm oil, Concentration (mg/g) 40 h) was “—” and the “dissolved state in oil for injection” value ([1]; palm oil, Concentration (mg/g) 50 h) was “—”. The “dissolved state in oil for injection” value ([1]; palm oil, Concentration (mg/g) 60 h) was “—”, the “dissolved state in oil for injection” value ([1]; soybean oil, Concentration (mg/g) 10 h) was “cannot be fully dissolved” and the “dissolved state in oil for injection” value ([1]; soybean oil, Concentration (mg/g) 20 h) was “—”. For the same molecule, the “dissolved state in oil for injection” value ([1]; soybean oil, Concentration (mg/g) 30 h) was “—”, the “dissolved state in oil for injection” value ([1]; soybean oil, Concentration (mg/g) 40 h) was “—” and the “dissolved state in oil for injection” value ([1]; soybean oil, Concentration (mg/g) 50 h) was “—”. For the same molecule, the “dissolved state in oil for injection” value ([1]; soybean oil, Concentration (mg/g) 60 h) was “—”, the “solubility in ethanol and other organic solvents” value [2] was “soluble” and the solubility in water [2] was “almost insoluble”.
For Tween-80, the “grade of allergic reactions” value (Beagle dogs) is listed as no less than 3.
